This is an account of results in ChEMBL document CHEMBL1201862, “PubChem BioAssay data set” (2004).

In one assay the target is Cytochrome P450 2D6 (Homo sapiens, UniProt P10635).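 Note: CYP2D6 member of a cytochrome P450 panel assay.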
The next assay has as its target Cytochrome P450 2C9 (Homo sapiens, UniProt P11712).
A further assay has as its target Cytochrome P450 2C19 (Homo sapiens, UniProt P33261). The assay can be described thus: Cytochrome panel assay with activity outcomes. Panel member name: p450-cyp2c19 Compounds with AC50 equal or less than 10 uM are considered active. The following applies: read-out: AC50. Format: functional.
The target in a further assay is T1, Cytochrome P450 1A2 (Homo sapiens, UniProt P05177).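 Note: PubChem cytochrome P450 panel assay, CYP1A2 panel member.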
T1 sequence (P05177 whole entry): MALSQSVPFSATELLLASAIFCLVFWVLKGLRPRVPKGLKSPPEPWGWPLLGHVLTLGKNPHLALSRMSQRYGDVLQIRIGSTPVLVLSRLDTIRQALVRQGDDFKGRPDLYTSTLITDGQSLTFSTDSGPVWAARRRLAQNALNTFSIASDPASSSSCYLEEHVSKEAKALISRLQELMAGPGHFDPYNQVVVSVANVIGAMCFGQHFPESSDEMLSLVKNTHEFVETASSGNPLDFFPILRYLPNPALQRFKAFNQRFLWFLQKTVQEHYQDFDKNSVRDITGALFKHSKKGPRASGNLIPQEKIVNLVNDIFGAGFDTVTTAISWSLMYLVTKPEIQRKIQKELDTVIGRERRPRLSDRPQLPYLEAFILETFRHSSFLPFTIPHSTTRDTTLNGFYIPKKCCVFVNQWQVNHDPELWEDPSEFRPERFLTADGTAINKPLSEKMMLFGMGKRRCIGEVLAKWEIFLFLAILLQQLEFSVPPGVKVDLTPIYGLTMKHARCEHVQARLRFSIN

Assay [1] can be described thus: inhibitors of intracellular T. cruzi replication, confirmation, NIH3T3 host cells, beta-gal luminescence (AID 2044).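 Note: intracellular parasites grown in NIH/3T3 mouse fibroblasts as host cells; luminescent beta-galactosidase reporter signal from transgenic T. cruzi replicating inside host cells; inhibitors lower the luminescence signal.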 The format is functional, cell-based.
The nature of assay [2]: cytotoxicity toward NIH3T3 fibroblasts, dose response, counter-screen, cell-based, ATP luminescence, mouse fibroblasts (AID 2010).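 Note: cells exposed to compound for about 90 hours before reading.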 Format: functional. On the technique in general: A counterscreen serves to expose hits that act by an unwanted route or on another target.
The target of assay [3] is T2, Replicative DNA helicase DnaB (Mycobacterium tuberculosis, UniProt P9WMR3).
T2 sequence (P9WMR3 whole entry): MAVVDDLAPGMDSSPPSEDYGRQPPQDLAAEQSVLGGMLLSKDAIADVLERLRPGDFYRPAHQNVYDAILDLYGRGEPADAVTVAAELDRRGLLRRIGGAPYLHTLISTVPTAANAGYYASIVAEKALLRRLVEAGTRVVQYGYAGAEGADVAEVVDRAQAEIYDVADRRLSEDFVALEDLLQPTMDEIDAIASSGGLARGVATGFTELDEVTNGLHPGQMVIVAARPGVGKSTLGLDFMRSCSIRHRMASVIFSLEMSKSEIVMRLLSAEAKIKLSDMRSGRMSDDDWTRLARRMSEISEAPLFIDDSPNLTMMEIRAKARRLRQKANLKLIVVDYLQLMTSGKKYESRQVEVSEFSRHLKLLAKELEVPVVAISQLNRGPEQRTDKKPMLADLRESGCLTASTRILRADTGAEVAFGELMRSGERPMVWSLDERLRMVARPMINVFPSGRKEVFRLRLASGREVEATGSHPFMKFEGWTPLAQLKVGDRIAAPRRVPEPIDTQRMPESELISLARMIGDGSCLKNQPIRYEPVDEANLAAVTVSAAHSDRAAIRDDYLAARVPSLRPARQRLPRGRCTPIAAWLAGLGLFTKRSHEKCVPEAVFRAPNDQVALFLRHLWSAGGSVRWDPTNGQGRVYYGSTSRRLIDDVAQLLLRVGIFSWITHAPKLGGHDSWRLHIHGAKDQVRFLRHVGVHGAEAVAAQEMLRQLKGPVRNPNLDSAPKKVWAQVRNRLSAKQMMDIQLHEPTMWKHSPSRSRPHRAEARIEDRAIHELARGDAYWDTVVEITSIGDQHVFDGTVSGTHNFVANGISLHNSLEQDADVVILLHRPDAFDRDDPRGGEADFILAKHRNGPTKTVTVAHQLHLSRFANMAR
As to the kind of experiment: DnaB intein splicing inhibitors, dose response, biochemical, cell-free fluorescence (AID 449749). The format is functional.

A further assay addresses T3, Protein RecA (Mycobacterium tuberculosis, UniProt P9WHJ3).
T3 sequence (P9WHJ3 whole entry): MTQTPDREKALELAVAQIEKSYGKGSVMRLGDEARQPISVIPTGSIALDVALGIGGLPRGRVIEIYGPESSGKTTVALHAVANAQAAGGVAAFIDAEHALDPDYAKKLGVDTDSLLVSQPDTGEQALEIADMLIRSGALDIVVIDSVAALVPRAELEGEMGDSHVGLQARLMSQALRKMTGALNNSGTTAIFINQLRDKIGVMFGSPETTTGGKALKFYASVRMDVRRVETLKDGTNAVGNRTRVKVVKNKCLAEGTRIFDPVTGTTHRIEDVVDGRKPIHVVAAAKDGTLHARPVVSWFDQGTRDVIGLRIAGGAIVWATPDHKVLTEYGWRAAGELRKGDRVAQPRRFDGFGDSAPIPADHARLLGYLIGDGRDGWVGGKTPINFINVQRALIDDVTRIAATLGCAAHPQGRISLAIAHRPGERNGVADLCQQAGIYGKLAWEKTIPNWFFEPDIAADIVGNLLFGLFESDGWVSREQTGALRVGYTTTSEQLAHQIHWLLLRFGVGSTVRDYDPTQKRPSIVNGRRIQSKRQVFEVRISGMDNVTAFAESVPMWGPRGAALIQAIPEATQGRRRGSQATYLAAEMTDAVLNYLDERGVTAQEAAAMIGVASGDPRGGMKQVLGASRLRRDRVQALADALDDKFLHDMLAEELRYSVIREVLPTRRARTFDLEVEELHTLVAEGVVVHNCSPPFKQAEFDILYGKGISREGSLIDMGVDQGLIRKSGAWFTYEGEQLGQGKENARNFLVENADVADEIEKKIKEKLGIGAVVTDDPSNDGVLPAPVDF
As to the kind of experiment: Fluorescence Cell-Free Homogeneous Dose Retest to Identify Inhibitors of RecA-Intein Splicing Activity. [Related pubchem assays (depositor defined):AID2097, AID2223, AID489010, AID492950]. The format is functional.

SMILES strings stand for the structures. Calls of active or inactive are those of the source.

Chain of Cytochrome P450 2C9 (P11712 whole entry): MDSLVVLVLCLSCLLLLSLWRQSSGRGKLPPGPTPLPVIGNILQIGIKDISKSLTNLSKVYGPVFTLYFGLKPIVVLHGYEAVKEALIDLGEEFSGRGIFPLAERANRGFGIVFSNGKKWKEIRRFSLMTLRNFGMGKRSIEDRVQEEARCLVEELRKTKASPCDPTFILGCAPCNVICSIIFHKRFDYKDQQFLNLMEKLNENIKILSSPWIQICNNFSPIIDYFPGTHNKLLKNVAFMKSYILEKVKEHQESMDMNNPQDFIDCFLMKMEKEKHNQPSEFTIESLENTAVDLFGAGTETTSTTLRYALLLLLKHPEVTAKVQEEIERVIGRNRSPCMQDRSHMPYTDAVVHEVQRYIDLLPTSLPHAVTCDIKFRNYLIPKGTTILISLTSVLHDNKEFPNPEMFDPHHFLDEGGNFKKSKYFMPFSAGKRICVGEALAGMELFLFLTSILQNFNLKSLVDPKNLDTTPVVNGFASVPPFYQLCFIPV
Chain of Cytochrome P450 2C19 (P33261 whole entry): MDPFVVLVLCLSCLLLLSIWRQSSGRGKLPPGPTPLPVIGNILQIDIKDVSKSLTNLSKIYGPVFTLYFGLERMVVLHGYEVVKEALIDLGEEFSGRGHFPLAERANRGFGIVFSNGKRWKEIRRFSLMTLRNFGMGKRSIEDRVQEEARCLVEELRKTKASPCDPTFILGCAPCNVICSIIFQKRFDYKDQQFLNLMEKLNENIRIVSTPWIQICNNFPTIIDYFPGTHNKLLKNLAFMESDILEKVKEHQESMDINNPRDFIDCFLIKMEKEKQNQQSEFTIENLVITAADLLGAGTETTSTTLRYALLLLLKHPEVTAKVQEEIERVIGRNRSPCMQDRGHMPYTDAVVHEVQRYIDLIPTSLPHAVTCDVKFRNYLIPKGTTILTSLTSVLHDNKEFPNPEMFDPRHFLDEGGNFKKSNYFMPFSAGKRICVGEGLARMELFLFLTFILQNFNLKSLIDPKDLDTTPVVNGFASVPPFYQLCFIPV
Chain of Cytochrome P450 2D6 (P10635 whole entry): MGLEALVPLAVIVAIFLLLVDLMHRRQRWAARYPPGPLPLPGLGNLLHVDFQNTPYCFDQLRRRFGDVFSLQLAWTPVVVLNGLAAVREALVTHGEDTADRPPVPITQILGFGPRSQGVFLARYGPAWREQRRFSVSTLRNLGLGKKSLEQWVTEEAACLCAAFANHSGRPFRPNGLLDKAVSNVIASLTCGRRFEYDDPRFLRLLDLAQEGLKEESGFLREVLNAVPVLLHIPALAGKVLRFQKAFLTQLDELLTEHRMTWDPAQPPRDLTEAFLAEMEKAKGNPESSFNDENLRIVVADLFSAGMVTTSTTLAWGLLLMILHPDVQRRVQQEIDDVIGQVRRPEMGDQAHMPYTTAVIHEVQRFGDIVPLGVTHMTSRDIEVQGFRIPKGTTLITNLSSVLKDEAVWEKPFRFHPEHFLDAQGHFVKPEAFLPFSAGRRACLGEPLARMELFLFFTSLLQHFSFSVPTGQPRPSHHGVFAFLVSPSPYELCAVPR

Take `COc1ccc(O[C@H]2C=C[C@@H](c3ccccc3)O[C@H]2COC(=O)CC/C(C)=N\O[C@@H](C)c2cn([C@H]3COC[C@H]3O)nn2)cc1`: at Cytochrome P450 2D6, the half-maximal activity concentration (AC50) is 7.94 µM (inconclusive). `COC(=O)[C@@]1(Cc2ccccc2)[C@H]2c3cc(C(=O)N(C)C)n(CCN4CNCC4=O)c3C[C@H]2CN1C(=O)c1ccccc1`: the values for the AC50 on Cytochrome P450 2C9, on Cytochrome P450 2C19 and at Cytochrome P450 1A2 were 25.1 µM (inconclusive), 31.6 µM (inconclusive) and 5.01 µM (inconclusive), respectively. Regarding `CCOC(=O)c1cc(C(=O)OCC)cc(-n2cc(O)c(C(=O)OCC)n2)c1`, the AC50 at Cytochrome P450 2D6 was 3.16 µM (inconclusive).

For `COc1ccc2[nH]cc(CCNc3ncncc3-c3ccc(C(=O)N(C)C)cc3)c2c1`, the AC50 at Cytochrome P450 1A2 was 20 µM (inconclusive).

As for `c1ccc(Nc2nc(-c3ccc4c(c3)OCO4)nc3ccccc23)cc1`, the AC50 on Cytochrome P450 2D6 was 39.8 µM (inconclusive). With `COC(=O)[C@H]1C(=O)[C@H](C(=O)OC)[C@@H]2CC[C@H]1N2C`, the AC50 on Cytochrome P450 1A2 is 0.794 µM (inconclusive).

On to `COc1ccc(-n2nnnc2-c2cn(C)nc2C(F)(F)F)cc1`, for which the values for the AC50 at Cytochrome P450 2C9 and on Cytochrome P450 1A2 were 28.2 µM (inconclusive) and 25.1 µM (inconclusive), respectively.

In the case of `Cc1nnc(NC(=O)CCC(=O)NCc2cccs2)s1`, the AC50 on Cytochrome P450 2C9 was 31.6 µM (inconclusive); at Cytochrome P450 2C19, 22.4 µM (inconclusive).

Consider `O=C(c1cnccn1)N1CCC2(CCCN(C(c3ccccc3)c3ccccc3)C2)CC1`, for which the AC50 was 25.1 µM (inconclusive) on Cytochrome P450 2C19 and 20 µM (inconclusive) on Cytochrome P450 1A2. In the case of `O=[N+]([O-])c1ccc(NN=C2c3ccccc3Cc3ccccc32)c([N+](=O)[O-])c1`, at Cytochrome P450 1A2, the AC50 is 0.794 µM (inconclusive).

For the compound `CC(=O)Oc1ccccc1C(=O)Oc1ccccc1C(=O)O` [DIPLOSALSALATE], the AC50 on Cytochrome P450 2C9 was 15.8 µM (inconclusive); at Cytochrome P450 1A2, 12.6 µM (inconclusive). As for `CCc1c(C(=O)NCc2ccc3c(c2)OCO3)[nH]c(C)c1C(C)=O`, the figures for the AC50 on Cytochrome P450 2D6 and on Cytochrome P450 2C9 were 20 µM (inconclusive) and 10 µM (inconclusive), respectively. Turning to `C/C(Cn1nc([N+](=O)[O-])cc1C)=N\NC(=O)c1ccc(O)cc1O`, the values for the AC50 on Cytochrome P450 2C19 and at Cytochrome P450 1A2 were 7.08 µM (inconclusive) and 25.1 µM (inconclusive), respectively.

On to `O=C(NNC(=O)c1cccnc1)Nc1cccc2ccccc12`, for which the values for the AC50 at Cytochrome P450 2C19 and at Cytochrome P450 1A2 were 28.2 µM (inconclusive) and 14.1 µM (inconclusive), respectively.

Regarding `CC(=O)c1c(O)cc(=O)n(-c2ccccc2)c1-c1ccc(C)cc1`, the AC50 at Cytochrome P450 2D6 was 0.00501 µM (inconclusive); at Cytochrome P450 2C9 it was 15.8 µM (inconclusive). Take `CCN=C(Nc1cccc(F)c1)SC1CC(=O)N(c2ccc(OC)cc2)C1=O` (configuration not stated): the AC50 at Cytochrome P450 2D6 was 14.1 µM (inconclusive). On to `Cc1ccc(-c2cc(-c3nnc(SCC(=O)NC(C)C(C)C)n3N)c3ccccc3n2)cc1` (configuration not stated), for which the AC50 at Cytochrome P450 2C19 was 15.8 µM (inconclusive); on Cytochrome P450 1A2, 31.6 µM (inconclusive). For `c1ccc(-c2ccccn2)nc1`, at Cytochrome P450 1A2, the AC50 was 25.1 µM (inconclusive).

For `CC1CN(C(=S)NC(=O)c2ccc([N+](=O)[O-])cc2)CC(C)O1` (configuration not stated), the AC50 on Cytochrome P450 2C19 is 31.6 µM (inconclusive); on Cytochrome P450 1A2, 12.6 µM (inconclusive). With `COc1cc([N+](=O)[O-])ccc1NC(=O)CCCOc1cccc(C)c1`, the concentration at half-maximal activity (AC50) on Cytochrome P450 2D6 is 15.8 µM (inconclusive). For the compound `Cc1ccccc1NC(=O)CSc1nc(N2CCCCC2)nc(N2CCCCC2)n1`, the AC50 at Cytochrome P450 2C9 was 0.00891 µM (inconclusive); on Cytochrome P450 1A2, 3.55 µM (inconclusive). For `O=C(CNS(=O)(=O)c1ccc(Br)s1)N1CCC(N2CCCCC2)CC1`, the concentration at half-maximal activity (AC50) at Cytochrome P450 2C19 is 20 µM (inconclusive).

As for `CN(C)c1nc(NCc2ccccc2)nc(N/N=C/c2ccc(Cl)cc2Cl)n1`, at Cytochrome P450 2C19, the AC50 was 1 µM (inconclusive). In the case of `CC(C)n1nnnc1SCC(=O)NCCc1ccccc1`, the concentration at half-maximal activity (AC50) on Cytochrome P450 2D6 was 25.1 µM (inconclusive). With `COc1ccc(C(=O)Nc2cccc(/C(C)=N/NC(=O)c3ccc([N+](=O)[O-])cc3)c2)cc1OC`, the AC50 is 2.51 µM (inconclusive) on Cytochrome P450 2C9 and 31.6 µM (inconclusive) at Cytochrome P450 2C19. On to `Cc1ccc(NC(=S)N2CCN(CCN3C(=O)c4cccc5cccc(c45)C3=O)CC2)cc1`, for which the EC50 in assay [1] is 0.855 µM (active); in assay [2], > 60 µM (not active). Moreover, the AC50 is 15.8 µM (inconclusive) on Cytochrome P450 2C19 and 20 µM (inconclusive) at Cytochrome P450 1A2.

In the case of `C#CCOC(=O)c1ccccc1C(=O)n1nnc2ccccc21`, the concentration at half-maximal activity (AC50) in assay [3] was 6.81 µM (active). The 50% effective concentration (EC50) at Protein RecA is 8.84 µM (active).

Consider `CNC(=O)COC(=O)c1cc2c(C)nn(-c3ccc(F)cc3)c2s1`, for which the AC50 at Cytochrome P450 2C9 was 1.12 µM (inconclusive); at Cytochrome P450 2C19 it was 39.8 µM (inconclusive).

Regarding `c1cc(CN2CC3(CCNCC3)C2)ccn1`, the AC50 at Cytochrome P450 2D6 was 39.8 µM (inconclusive). Same read-out and setting: in the case of `CS(=O)(=O)Nc1cccc(-c2cncnc2Nc2ccc(F)cc2)c1` it was 20 µM (inconclusive). As to `CCCN[C@@H](C)C(=O)Nc1c(C)csc1C(=O)OC`, on Cytochrome P450 1A2, the AC50 is 12.6 µM (inconclusive). Turning to `O=C(NCCc1c[nH]c2ccccc12)[C@H]1C[C@@H]1[C@H](NP(=O)(c1ccccc1)c1ccccc1)c1ccccc1`, on Cytochrome P450 1A2, the AC50 is 12.6 µM (inconclusive). For the compound `CCC1C(=O)N(c2nc(C)cc(C)n2)N=C1C` (configuration not stated), the AC50 in assay [3] was 8.34 µM (active). In addition, the EC50 on Protein RecA was 3.3 µM (active).

Turning to `COc1ccc2c(c1)CCc1c(C(=O)N3CCCCCC3)noc1-2`, the figures for the concentration at half-maximal activity (AC50) on Cytochrome P450 2D6 and on Cytochrome P450 2C9 were 15.8 µM (inconclusive) and 25.1 µM (inconclusive), respectively. Regarding `NC(=O)COc1c(F)cc(SCCNS(=O)(=O)c2ccccc2)cc1F`, the AC50 at Cytochrome P450 2C9 and at Cytochrome P450 1A2 was 31.6 µM (inconclusive) each time.

`CCNc1ncc2nc(C)c(=O)n(Cc3cccc(OC)c3)c2n1`: the AC50 at Cytochrome P450 2D6 is 25.1 µM (inconclusive). In the case of `CC1=NN(Cc2ccccc2)C(=O)C1C(c1ccncc1)C(C#N)C#N` (configuration not stated), the AC50 in assay [3] is 9.46 µM (active). In addition, the EC50 on Protein RecA was 3.52 µM (active).

With `Cc1ccccc1NS(=O)(=O)c1cc(C(=O)Nc2cccc(N(C)S(C)(=O)=O)c2)ccc1C`, the AC50 at Cytochrome P450 2D6 and on Cytochrome P450 1A2 was 17.8 µM (inconclusive) in each case.

The AC50 is the concentration at which the activity in the assay is half-maximal. The term EC50 denotes the concentration giving half of the maximal effect.
